{"source": "patent US9216999B2", "about": "“Substituted pyrrolo[2,3-h][1,6]naphthyridines and compositions thereof as JAK inhibitors” (priority 2011, dated 2015)", "key": {"JAK3": {"target": "JAK3 (Homo sapiens (Human), UniProt P52333)", "sequence (P52333 whole entry)": "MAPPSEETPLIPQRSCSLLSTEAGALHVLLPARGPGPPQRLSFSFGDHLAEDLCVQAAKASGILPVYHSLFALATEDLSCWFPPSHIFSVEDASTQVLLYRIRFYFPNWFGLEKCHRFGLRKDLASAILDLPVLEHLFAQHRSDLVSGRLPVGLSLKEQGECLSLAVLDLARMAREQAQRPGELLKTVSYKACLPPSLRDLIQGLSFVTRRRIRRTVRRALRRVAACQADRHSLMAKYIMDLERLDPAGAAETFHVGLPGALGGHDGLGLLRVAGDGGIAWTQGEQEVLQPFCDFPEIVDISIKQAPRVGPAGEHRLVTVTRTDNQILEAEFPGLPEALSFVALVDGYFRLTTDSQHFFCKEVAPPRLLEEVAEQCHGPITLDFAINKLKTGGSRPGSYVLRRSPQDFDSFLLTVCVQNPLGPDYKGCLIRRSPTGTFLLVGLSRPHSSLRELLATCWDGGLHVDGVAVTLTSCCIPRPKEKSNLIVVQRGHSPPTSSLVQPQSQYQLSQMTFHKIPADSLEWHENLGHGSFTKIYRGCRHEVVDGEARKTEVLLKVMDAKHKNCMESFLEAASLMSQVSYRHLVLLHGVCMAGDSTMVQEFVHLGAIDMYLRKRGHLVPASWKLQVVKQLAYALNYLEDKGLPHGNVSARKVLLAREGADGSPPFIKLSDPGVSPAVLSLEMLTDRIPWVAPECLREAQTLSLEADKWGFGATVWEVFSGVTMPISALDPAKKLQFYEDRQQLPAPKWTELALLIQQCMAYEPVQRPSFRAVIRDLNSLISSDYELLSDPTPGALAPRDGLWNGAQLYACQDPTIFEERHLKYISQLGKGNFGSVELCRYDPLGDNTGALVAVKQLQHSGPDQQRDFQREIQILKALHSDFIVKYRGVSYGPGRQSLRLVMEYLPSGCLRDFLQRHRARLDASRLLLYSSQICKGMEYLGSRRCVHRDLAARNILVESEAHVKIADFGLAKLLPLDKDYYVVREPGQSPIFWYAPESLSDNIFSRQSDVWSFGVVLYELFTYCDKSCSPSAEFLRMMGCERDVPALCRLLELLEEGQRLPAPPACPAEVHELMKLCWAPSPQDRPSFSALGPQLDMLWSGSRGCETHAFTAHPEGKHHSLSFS", "experiment": "JAK3 enzyme assay (Assay Example^b 1)"}, "JAK1": {"target": "JAK1 (Homo sapiens (Human), UniProt P23458)", "experiment": "JAK1 enzyme assay (Assay Example^b 1)"}, "JAK2": {"target": "JAK2 (Homo sapiens (Human), UniProt O60674)", "experiment": "JAK2 enzyme assay (Assay Example^b 1)"}, "Tyk2": {"target": "Tyk2 (Homo sapiens (Human), UniProt P29597)", "sequence (P29597 whole entry)": "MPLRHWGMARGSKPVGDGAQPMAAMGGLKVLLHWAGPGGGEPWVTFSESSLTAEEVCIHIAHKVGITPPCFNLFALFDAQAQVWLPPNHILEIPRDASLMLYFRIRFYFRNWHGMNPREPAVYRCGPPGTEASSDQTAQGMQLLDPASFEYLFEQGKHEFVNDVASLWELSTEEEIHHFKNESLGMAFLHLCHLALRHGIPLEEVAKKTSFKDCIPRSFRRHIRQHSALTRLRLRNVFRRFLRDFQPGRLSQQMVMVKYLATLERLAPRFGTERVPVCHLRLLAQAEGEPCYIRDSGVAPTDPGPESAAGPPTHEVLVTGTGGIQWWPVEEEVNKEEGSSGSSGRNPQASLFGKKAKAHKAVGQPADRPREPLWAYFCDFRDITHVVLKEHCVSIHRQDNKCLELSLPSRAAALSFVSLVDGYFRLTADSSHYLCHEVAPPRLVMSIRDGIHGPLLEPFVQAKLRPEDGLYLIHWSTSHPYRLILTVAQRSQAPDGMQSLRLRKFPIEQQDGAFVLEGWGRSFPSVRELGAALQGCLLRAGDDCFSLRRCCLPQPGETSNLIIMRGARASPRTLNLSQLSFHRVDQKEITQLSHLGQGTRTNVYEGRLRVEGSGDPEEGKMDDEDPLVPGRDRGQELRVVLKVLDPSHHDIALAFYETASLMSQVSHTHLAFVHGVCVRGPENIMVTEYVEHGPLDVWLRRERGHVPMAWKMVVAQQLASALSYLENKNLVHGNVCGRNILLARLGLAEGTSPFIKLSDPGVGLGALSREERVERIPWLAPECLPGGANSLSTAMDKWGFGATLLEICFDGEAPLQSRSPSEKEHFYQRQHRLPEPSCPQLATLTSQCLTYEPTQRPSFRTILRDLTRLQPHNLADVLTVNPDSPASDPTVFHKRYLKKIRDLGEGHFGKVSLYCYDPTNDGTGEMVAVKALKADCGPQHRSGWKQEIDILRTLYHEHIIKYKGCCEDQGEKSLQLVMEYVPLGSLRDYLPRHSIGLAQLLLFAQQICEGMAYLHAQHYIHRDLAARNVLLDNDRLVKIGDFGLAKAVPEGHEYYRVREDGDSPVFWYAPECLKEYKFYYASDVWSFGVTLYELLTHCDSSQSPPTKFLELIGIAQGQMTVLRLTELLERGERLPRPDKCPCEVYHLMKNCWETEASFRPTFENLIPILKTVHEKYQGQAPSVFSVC", "experiment": "Tyk2 enzyme assay (Assay Example^b 1)"}, "[1]": {"conditions": "IC50 (μM) JAK1, Table^b 78, ATP 100 μM"}, "[2]": {"conditions": "IC50 (μM) JAK1, Table^b 80, ATP 100 μM"}, "[3]": {"conditions": "IC50 (μM) JAK3, Table^b 80, ATP 100 μM"}, "[4]": {"conditions": "IC50 (μM) JAK2, Table^b 80, ATP 100 μM"}, "[5]": {"conditions": "IC50 (μM) TYK2, Table^b 80, ATP 100 μM"}, "[6]": {"conditions": "IC50 (μM) TYK2, Table^b 79, ATP 100 μM"}}, "note": "Read-outs that look alike come from different tables or passages of the source."}
{"smiles": "O=c1ccn(C2CCCCC2)c2c1cnc1[nH]ccc12", "note": "[compound 3]", "values": [{"measurement": "IC50", "setting": "JAK3; IC50 (μM) JAK3, Table^b 78, ATP 100 μM", "result": 0.22, "unit": "µM"}, {"measurement": "IC50", "setting": "JAK1; [1]", "result": 0.017, "unit": "µM"}]}
{"smiles": "C[C@@H]1CCN(S(=O)(=O)CC(F)(F)F)C[C@@H]1n1ccc(=O)c2cnc3[nH]ccc3c21", "note": "(racemic) [compound 11]", "values": [{"measurement": "IC50", "setting": "JAK2; IC50 (μM) JAK2, Table^b 79, ATP 100 μM", "result": 0.033, "unit": "µM"}]}
{"smiles": "O=C1NCc2cnc3[nH]ccc3c2N1C1CCN(Cc2ccc(C(F)(F)F)cc2)CC1", "note": "[compound 63]", "values": [{"measurement": "IC50", "setting": "JAK1; [2]", "result": 0.12, "unit": "µM"}]}
{"smiles": "CC(C)(C)OC(=O)N1CCC(NCCN2CCC(n3c(=O)[nH]c(=O)c4cnc5[nH]ccc5c43)CC2)CC1", "note": "[compound 109]", "values": [{"measurement": "IC50", "setting": "JAK2; IC50 (μM) JAK2, ATP 100 μM", "result": "> 1", "unit": "µM"}, {"measurement": "IC50", "setting": "JAK3; IC50 (μM) JAK3, ATP 100 μM", "result": "> 1", "unit": "µM"}, {"measurement": "IC50", "setting": "JAK1; IC50 (μM) JAK1, ATP 100 μM", "result": 0.92, "unit": "µM"}, {"measurement": "IC50", "setting": "Tyk2; IC50 (μM) TYK2, ATP 100 μM", "result": "> 1", "unit": "µM"}]}
{"smiles": "CC1CCN(C(=O)C2CCC(C(C)(C)C)CC2)CC1n1ccc(=O)c2cnc3[nH]ccc3c21", "note": "(single isomer, unassigned) [Synthetic Example^b 48b, 1-{1-[4-(tert-Butyl)cyclohexanecarbonyl]-4-methylpiperidin-3-yl}-1H-pyrrolo[2,3-h][1,6]naphthyridin-4(7H)-one]", "values": [{"measurement": "IC50", "setting": "JAK3; [3]", "result": 0.36, "unit": "µM"}, {"measurement": "IC50", "setting": "JAK1; [2]", "result": 0.094, "unit": "µM"}, {"measurement": "IC50", "setting": "Tyk2; read-out: IC50 (μM) TYK2, Table^b 80, ATP 100 μM", "result": "> 1", "unit": "µM"}]}
{"smiles": "O=c1[nH]c(=O)n(C2CCN(CCN3CCOCC3)CC2)c2c1cnc1[nH]ccc12", "note": "[compound 108]", "values": [{"measurement": "IC50", "setting": "JAK2; IC50 (μM) JAK2, ATP 100 μM", "result": "> 1", "unit": "µM"}, {"measurement": "IC50", "setting": "JAK3; IC50 (μM) JAK3, ATP 100 μM", "result": "> 1", "unit": "µM"}, {"measurement": "IC50", "setting": "JAK1; IC50 (μM) JAK1, ATP 100 μM", "result": 0.37, "unit": "µM"}, {"measurement": "IC50", "setting": "Tyk2; IC50 (μM) TYK2, ATP 100 μM", "result": "> 1", "unit": "µM"}]}
{"smiles": "O=C1NCc2cnc3[nH]ccc3c2N1C1CCN(S(=O)(=O)Cc2ccccc2)CC1", "note": "[compound 60]", "values": [{"measurement": "IC50", "setting": "JAK2; [4]", "result": 0.48, "unit": "µM"}, {"measurement": "IC50", "setting": "JAK3; [3]", "result": "> 1", "unit": "µM"}, {"measurement": "IC50", "setting": "JAK1; [2]", "result": 0.35, "unit": "µM"}, {"measurement": "IC50", "setting": "Tyk2; [5]", "result": "> 1", "unit": "µM"}]}
{"smiles": "Cc1nc(CN2CCC(n3ccc(=O)c4cnc5[nH]ccc5c43)CC2)cs1", "note": "[compound 86]", "values": [{"measurement": "IC50", "setting": "JAK1; [2]", "result": 0.043, "unit": "µM"}]}
{"smiles": "N#Cc1ccc(CN2CCC(N3C(=O)NCc4cnc5[nH]ccc5c43)CC2)cc1", "note": "[compound 62]", "values": [{"measurement": "IC50", "setting": "JAK3; [3]", "result": "> 1", "unit": "µM"}, {"measurement": "IC50", "setting": "Tyk2; [5]", "result": "> 1", "unit": "µM"}]}
{"smiles": "O=c1[nH]c(=O)n(C2C3CC4CC2CC(O)(C4)C3)c2c1cnc1[nH]ccc12", "note": "(centres unmarked) [compound 105]", "values": [{"measurement": "IC50", "setting": "JAK2; IC50 (μM) JAK2, ATP 100 μM", "result": "> 1", "unit": "µM"}, {"measurement": "IC50", "setting": "JAK3; IC50 (μM) JAK3, ATP 100 μM", "result": "> 1", "unit": "µM"}, {"measurement": "IC50", "setting": "Tyk2; IC50 (μM) TYK2, ATP 100 μM", "result": "> 1", "unit": "µM"}]}
{"smiles": "O=C1NCc2cnc3[nH]ccc3c2N1C1CCN(Cc2cccnc2)CC1", "note": "[compound 61]", "values": [{"measurement": "IC50", "setting": "Tyk2; [5]", "result": 3.6, "unit": "µM"}]}
{"smiles": "O=C(Nc1nncs1)N1CCC(N2C(=O)NCc3cnc4[nH]ccc4c32)CC1", "note": "[compound 64]", "values": [{"measurement": "IC50", "setting": "JAK2; [4]", "result": 0.02, "unit": "µM"}, {"measurement": "IC50", "setting": "JAK1; [2]", "result": 0.012, "unit": "µM"}, {"measurement": "IC50", "setting": "Tyk2; [5]", "result": 0.17, "unit": "µM"}]}
{"smiles": "O=c1ccn(C2CCCCC2)c2c1cnc1[nH]cnc12", "note": "[compound 20]", "values": [{"measurement": "IC50", "setting": "JAK1; [1]", "result": 0.28, "unit": "µM"}, {"measurement": "IC50", "setting": "Tyk2; [6]", "result": 0.76, "unit": "µM"}]}
{"smiles": "O=c1ncc2cnc3[nH]ccc3c2n1C1CCCCC1", "note": "[compound 18]", "values": [{"measurement": "IC50", "setting": "Tyk2; [6]", "result": 0.25, "unit": "µM"}]}
{"smiles": "O=c1[nH]c(=O)n(C2CCN(CCNCC3CC3)CC2)c2c1cnc1[nH]ccc12", "note": "[compound 110]", "values": [{"measurement": "IC50", "setting": "JAK2; IC50 (μM) JAK2, ATP 100 μM", "result": "> 1", "unit": "µM"}, {"measurement": "IC50", "setting": "JAK1; IC50 (μM) JAK1, ATP 100 μM", "result": 0.42, "unit": "µM"}]}
{"smiles": "O=c1[nH]c(=O)n(C2C3CC4CC2CC(O)(C4)C3)c2c1cnc1[nH]ccc12", "note": "(centres unmarked) [compound 104]", "values": [{"measurement": "IC50", "setting": "JAK2; IC50 (μM) JAK2, ATP 100 μM", "result": 0.046, "unit": "µM"}, {"measurement": "IC50", "setting": "JAK3; IC50 (μM) JAK3, ATP 100 μM", "result": 0.38, "unit": "µM"}, {"measurement": "IC50", "setting": "Tyk2; IC50 (μM) TYK2, ATP 100 μM", "result": 0.38, "unit": "µM"}]}
{"smiles": "C[C@@H]1CCN(Cc2ccccc2)C[C@@H]1n1cc(Br)c(=O)c2cnc3[nH]ccc3c21", "note": "(racemic) [compound 24]", "values": [{"measurement": "IC50", "setting": "JAK2; IC50 (μM) JAK2", "result": 0.74, "unit": "µM"}]}
{"smiles": "N#CCC(=O)N(CC(F)(F)F)C[C@H]1CC[C@H](n2c(=O)[nH]c(=O)c3cnc4[nH]ccc4c32)CC1", "note": "[Synthetic Example^b 135, 2-Cyano-N-{[trans-4-(2,4-dioxo-2,3,4,7-tetrahydro-1H-pyrrolo[3′,2′:5,6]pyrido[4,3-d]pyrimidin-1-yl)cyclohexyl]methyl}-N-(2,2,2-trifluoroethyl)acetamide]", "values": [{"measurement": "IC50", "setting": "JAK3; IC50 (μM) JAK3, ATP 100 μM", "result": 0.5, "unit": "µM"}]}
{"smiles": "O=c1ccn(C2CCN(Cc3ccc(Cl)c(Cl)c3)CC2)c2c1cnc1[nH]ccc12", "note": "[compound 75]", "values": [{"measurement": "IC50", "setting": "JAK3; [3]", "result": "> 1", "unit": "µM"}]}
{"smiles": "O=CC1CCC(n2c(=O)[nH]c(=O)c3cnc4[nH]ccc4c32)CC1", "note": "(centres unmarked) [compound 133]", "values": [{"measurement": "IC50", "setting": "JAK3; IC50 (μM) JAK3, ATP 100 μM", "result": "> 1", "unit": "µM"}, {"measurement": "IC50", "setting": "JAK1; IC50 (μM) JAK1, ATP 100 μM", "result": 0.012, "unit": "µM"}, {"measurement": "IC50", "setting": "Tyk2; IC50 (μM) TYK2, ATP 100 μM", "result": 0.41, "unit": "µM"}]}
{"smiles": "O=C(CC(F)(F)F)N1CCC(N2C(=O)NCc3cnc4[nH]ccc4c32)CC1", "note": "[compound 65]", "values": [{"measurement": "IC50", "setting": "JAK3; [3]", "result": 9.5, "unit": "µM"}, {"measurement": "IC50", "setting": "Tyk2; [5]", "result": 2.9, "unit": "µM"}]}
{"smiles": "O=c1c2cnc3[nH]ccc3c2n(C2CCCCC2)c(=O)n1CC(F)(F)F", "note": "[Synthetic Example^b 139, 1-cyclohexyl-3-(2,2,2-trifluoroethyl)-1H-pyrrolo[3′,2′:5,6]pyrido[4,3-d]pyrimidine-2,4(3H,7H)-dione]", "values": [{"measurement": "IC50", "setting": "JAK3; IC50 (μM) JAK3, ATP 100 μM", "result": "> 1", "unit": "µM"}, {"measurement": "IC50", "setting": "JAK1; IC50 (μM) JAK1, ATP 100 μM", "result": 0.1, "unit": "µM"}, {"measurement": "IC50", "setting": "Tyk2; IC50 (μM) TYK2, ATP 100 μM", "result": "> 1", "unit": "µM"}]}
{"smiles": "C[C@@H]1CCN(Cc2cccc(C(F)(F)F)c2)C[C@@H]1n1ccc(=O)c2cnc3[nH]ccc3c21", "note": "(racemic) [compound 39]", "values": [{"measurement": "IC50", "setting": "JAK3; [3]", "result": 0.18, "unit": "µM"}]}
{"smiles": "C[C@@H]1CCN(C(=O)OCc2ccccc2)C[C@@H]1n1ccc(=O)c2cnc3[nH]ccc3c21", "note": "(racemic) [compound 35]", "values": [{"measurement": "IC50", "setting": "JAK3; [3]", "result": 0.11, "unit": "µM"}]}
{"smiles": "C[C@@H]1CCN(C2CCCC2)C[C@@H]1n1ccc(=O)c2cnc3[nH]ccc3c21", "note": "(racemic) [compound 47]", "values": [{"measurement": "IC50", "setting": "Tyk2; [5]", "result": "> 1", "unit": "µM"}]}
{"smiles": "N#CCC[C@H]1CC[C@H](n2c(=O)[nH]c(=O)c3cnc4[nH]ccc4c32)CC1", "note": "[Synthetic Example^b 134, 3-[trans-4-(2,4-Dioxo-2,3,4,7-tetrahydro-1H-pyrrolo[3′,2′:5,6]pyrido[4,3-d]pyrimidin-1-yl)cyclohexyl]propanenitrile]", "values": [{"measurement": "IC50", "setting": "JAK3; IC50 (μM) JAK3, ATP 100 μM", "result": 0.81, "unit": "µM"}, {"measurement": "IC50", "setting": "JAK1; IC50 (μM) JAK1, ATP 100 μM", "result": 0.002, "unit": "µM"}, {"measurement": "IC50", "setting": "Tyk2; IC50 (μM) TYK2, ATP 100 μM", "result": 0.032, "unit": "µM"}]}
{"smiles": "CN(CC(F)(F)F)C[C@H]1CC[C@H](n2c(=O)[nH]c(=O)c3cnc4[nH]ccc4c32)CC1", "note": "[Synthetic Example^b 136, 1-(trans-4-{[Methyl(2,2,2-trifluoroethyl)amino]methyl}cyclohexyl)-1H-pyrrolo[3′,2′:5,6]pyrido[4,3-d]pyrimidine-2,4(3H,7H)-dione]", "values": [{"measurement": "IC50", "setting": "JAK3; IC50 (μM) JAK3, ATP 100 μM", "result": 0.75, "unit": "µM"}, {"measurement": "IC50", "setting": "JAK1; IC50 (μM) JAK1, ATP 100 μM", "result": 0.0032, "unit": "µM"}]}
